Active and inactive are the calls of the source. The calls are words filed in the database; no cut-off is given here.
Experiments:
Format in all cases: functional, cell-based
[1] = target: T1, Taste receptor type 2 member 20 (Homo sapiens) (UniProt P59543); assay: Agonist activity at recombinant human N-terminal rat ST3 receptor-fused TAS2R49 expressed in HEK293T cells co-expressing Galpha16gust44 assessed as increase in intracellular calcium level at 100 uM by FLIPR assay
T1 sequence (whole entry): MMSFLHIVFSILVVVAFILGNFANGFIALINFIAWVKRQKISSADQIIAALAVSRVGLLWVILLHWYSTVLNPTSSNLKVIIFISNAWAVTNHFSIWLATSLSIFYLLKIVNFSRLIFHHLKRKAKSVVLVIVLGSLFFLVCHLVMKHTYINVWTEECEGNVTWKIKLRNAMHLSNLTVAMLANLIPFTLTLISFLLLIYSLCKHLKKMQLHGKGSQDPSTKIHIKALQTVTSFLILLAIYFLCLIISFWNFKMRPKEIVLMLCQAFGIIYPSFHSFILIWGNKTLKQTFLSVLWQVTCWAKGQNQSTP

[2] = target: Taste receptor type 2 member 60 (Homo sapiens) (UniProt P59551); assay: Agonist activity at recombinant human N-terminal rat ST3 receptor-fused TAS2R60 expressed in HEK293T cells co-expressing Galpha16gust44 assessed as increase in intracellular calcium level at 100 uM by FLIPR assay
[3] = target: Taste receptor type 2 member 41 (Homo sapiens) (UniProt P59536); assay: Agonist activity at recombinant human N-terminal rat ST3 receptor-fused TAS2R41 expressed in HEK293T cells co-expressing Galpha16gust44 assessed as increase in intracellular calcium level at 100 uM by FLIPR assay
[4] = target: T2, Taste receptor type 2 member 8 (Homo sapiens) (UniProt Q9NYW2); assay: Agonist activity at recombinant human N-terminal rat ST3 receptor-fused TAS2R8 expressed in HEK293T cells co-expressing Galpha16gust44 assessed as increase in intracellular calcium level at 100 uM by FLIPR assay
T2 sequence (whole entry): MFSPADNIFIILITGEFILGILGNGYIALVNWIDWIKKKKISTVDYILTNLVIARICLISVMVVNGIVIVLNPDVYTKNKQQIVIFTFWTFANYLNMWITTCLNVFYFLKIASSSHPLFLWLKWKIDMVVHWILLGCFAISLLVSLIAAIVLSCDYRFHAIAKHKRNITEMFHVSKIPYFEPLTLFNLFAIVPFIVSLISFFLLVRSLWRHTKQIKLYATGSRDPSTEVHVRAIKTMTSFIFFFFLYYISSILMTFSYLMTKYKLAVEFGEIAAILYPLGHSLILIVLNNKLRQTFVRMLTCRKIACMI

[5] = target: Taste receptor type 2 member 42 (Homo sapiens) (UniProt Q7RTR8); assay: Agonist activity at recombinant human N-terminal rat ST3 receptor-fused TAS2R42 expressed in HEK293T cells co-expressing Galpha16gust44 assessed as increase in intracellular calcium level at 100 uM by FLIPR assay
[6] = target: T3, Taste receptor type 2 member 10 (Homo sapiens) (UniProt Q9NYW0); assay: Competitive-antagonist activity at recombinant human N-terminal rat ST3 receptor-fused TAS2R10 expressed in HEK293T cells co-expressing Galpha16gust44 assessed as inhibition of strychnine-induced increase in intracellular calcium level by measuring maximum signal amplitude at 100 uM by FLIPR assay (reference value: 0.42 +/- 0.09 a.u.)
T3 sequence (whole entry): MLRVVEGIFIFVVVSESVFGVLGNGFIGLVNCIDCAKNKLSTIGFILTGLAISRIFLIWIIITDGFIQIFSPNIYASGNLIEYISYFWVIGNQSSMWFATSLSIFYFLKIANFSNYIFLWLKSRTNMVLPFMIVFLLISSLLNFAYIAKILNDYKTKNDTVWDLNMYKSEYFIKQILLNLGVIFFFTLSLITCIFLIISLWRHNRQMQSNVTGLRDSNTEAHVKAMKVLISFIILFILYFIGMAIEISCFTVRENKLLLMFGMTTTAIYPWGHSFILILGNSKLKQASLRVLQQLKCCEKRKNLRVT

[7] = target: T4, Taste receptor type 2 member 43 (Homo sapiens) (UniProt P59537); assay: Agonist activity at recombinant human N-terminal rat ST3 receptor-fused TAS2R43 expressed in HEK293T cells co-expressing Galpha16gust44 assessed as increase in intracellular calcium level at 100 uM by FLIPR assay
T4 sequence (whole entry): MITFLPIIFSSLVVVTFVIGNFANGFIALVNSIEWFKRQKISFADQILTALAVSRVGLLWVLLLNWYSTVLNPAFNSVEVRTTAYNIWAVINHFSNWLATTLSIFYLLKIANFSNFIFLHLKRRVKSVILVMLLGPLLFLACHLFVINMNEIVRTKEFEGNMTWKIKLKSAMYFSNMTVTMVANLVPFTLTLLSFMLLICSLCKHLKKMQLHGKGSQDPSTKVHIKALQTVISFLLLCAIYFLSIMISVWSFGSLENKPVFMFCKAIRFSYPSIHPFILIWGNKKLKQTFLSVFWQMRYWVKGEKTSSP

[8] = target: T5, Taste receptor type 2 member 31 (Homo sapiens) (UniProt P59538); assay: Agonist activity at recombinant human N-terminal rat ST3 receptor-fused TAS2R44 expressed in HEK293T cells co-expressing Galpha16gust44 assessed as increase in intracellular calcium level at 100 uM by FLIPR assay
T5 sequence (whole entry): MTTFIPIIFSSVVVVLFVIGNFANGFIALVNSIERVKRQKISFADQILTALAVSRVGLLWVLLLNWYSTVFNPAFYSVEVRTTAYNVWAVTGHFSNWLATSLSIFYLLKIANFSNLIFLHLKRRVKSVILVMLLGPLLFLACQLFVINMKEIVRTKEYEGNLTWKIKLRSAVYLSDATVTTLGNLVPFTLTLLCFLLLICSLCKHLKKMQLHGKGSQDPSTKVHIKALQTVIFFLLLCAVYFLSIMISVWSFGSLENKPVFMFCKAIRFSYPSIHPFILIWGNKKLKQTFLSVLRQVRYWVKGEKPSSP

[9] = target: T6, Taste receptor type 2 member 39 (Homo sapiens) (UniProt P59534); assay: Agonist activity at recombinant human N-terminal rat ST3 receptor-fused TAS2R39 expressed in HEK293T cells co-expressing Galpha16gust44 assessed as increase in intracellular calcium level at 100 uM by FLIPR assay
T6 sequence (whole entry): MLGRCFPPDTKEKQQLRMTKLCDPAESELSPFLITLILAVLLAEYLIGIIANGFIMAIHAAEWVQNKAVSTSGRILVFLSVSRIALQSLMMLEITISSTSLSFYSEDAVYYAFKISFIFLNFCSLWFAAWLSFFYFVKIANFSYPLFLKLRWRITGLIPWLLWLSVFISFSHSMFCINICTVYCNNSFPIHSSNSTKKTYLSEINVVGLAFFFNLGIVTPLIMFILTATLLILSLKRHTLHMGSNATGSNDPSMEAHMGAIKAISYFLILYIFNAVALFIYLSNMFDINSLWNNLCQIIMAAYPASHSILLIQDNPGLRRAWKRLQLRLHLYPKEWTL

Taste receptor type 2 member 41 (Homo sapiens), sequence (P59536 whole entry, the tested form may be a part): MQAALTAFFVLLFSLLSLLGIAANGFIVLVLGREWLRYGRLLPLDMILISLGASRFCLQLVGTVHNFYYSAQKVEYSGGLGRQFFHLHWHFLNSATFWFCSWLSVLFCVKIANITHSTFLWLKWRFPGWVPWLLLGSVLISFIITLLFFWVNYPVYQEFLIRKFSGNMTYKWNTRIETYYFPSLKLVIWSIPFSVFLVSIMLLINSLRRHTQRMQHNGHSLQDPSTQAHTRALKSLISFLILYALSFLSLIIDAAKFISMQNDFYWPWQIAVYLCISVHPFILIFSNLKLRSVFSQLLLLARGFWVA
Taste receptor type 2 member 60 (Homo sapiens), sequence (P59551 whole entry, the tested form may be a part): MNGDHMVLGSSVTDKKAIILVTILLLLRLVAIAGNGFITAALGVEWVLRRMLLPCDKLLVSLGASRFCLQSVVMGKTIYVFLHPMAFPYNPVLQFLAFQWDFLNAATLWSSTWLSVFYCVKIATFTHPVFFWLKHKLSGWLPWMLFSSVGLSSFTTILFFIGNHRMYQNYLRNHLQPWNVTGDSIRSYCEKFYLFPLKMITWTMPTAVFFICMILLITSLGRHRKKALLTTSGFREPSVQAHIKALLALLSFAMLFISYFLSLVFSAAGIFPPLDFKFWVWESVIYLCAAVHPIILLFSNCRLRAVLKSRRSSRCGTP
Taste receptor type 2 member 42 (Homo sapiens), sequence (Q7RTR8 whole entry, the tested form may be a part): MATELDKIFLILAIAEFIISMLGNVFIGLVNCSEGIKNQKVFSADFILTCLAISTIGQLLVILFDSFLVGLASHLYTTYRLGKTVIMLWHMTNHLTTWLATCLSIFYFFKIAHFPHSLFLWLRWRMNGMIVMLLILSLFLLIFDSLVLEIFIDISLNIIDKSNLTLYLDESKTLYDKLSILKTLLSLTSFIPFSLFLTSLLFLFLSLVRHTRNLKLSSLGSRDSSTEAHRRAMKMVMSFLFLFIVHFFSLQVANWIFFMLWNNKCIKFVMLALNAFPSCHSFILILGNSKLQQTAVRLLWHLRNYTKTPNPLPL

In the case of `C/C1=C\C[C@H](O)/C(C)=C/[C@H]2OC(=O)[C@@H](C)[C@@H]2CC1`, the Activity [1] is reported as “inactive”, the Activity [2] is reported as “inactive” and the Activity [3] is reported as “inactive”. For the same compound, the Activity [4] was “Active”, the Activity [5] was “inactive” and the Activity [6] was 0.34 a.u. For the same compound, the Activity [7] was “inactive”, the Activity [8] was “Active” and the Activity [9] was “inactive”.
